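Interpolation was linear, between the two tested concentrations surrounding the appropriate level; five concentrations were tested over 48 hours in 96-well plates. TGI denotes the concentration required for complete inhibition of growth.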
Key:
Assay in all cases: growth of human tumour cells (NCI), 48 h
SK-OV-3 ovarian = system: SK-OV-3 ovarian
HS 578T breast = system: HS 578T breast
A498 renal = system: A498 renal
SW-620 colon = system: SW-620 colon
IGROV1 ovarian = system: IGROV1 ovarian
UACC-62 melanoma = system: UACC-62 melanoma
NCI-H522 lung = system: NCI-H522 lung
SNB-75 CNS = system: SNB-75 CNS
T-47D breast = system: T-47D breast
SK-MEL-2 melanoma = system: SK-MEL-2 melanoma
RXF 393 renal = system: RXF 393 renal
SF-539 CNS = system: SF-539 CNS
SF-268 CNS = system: SF-268 CNS
NCI-H226 lung = system: NCI-H226 lung
HCC-2998 colon = system: HCC-2998 colon
HOP-92 NSCLC = system: HOP-92 NSCLC
UACC-257 melanoma = system: UACC-257 melanoma
BT-549 breast = system: BT-549 breast

Row | SMILES | TGI (SK-OV-3 ovarian) [µM] | TGI (HS 578T breast) [µM] | TGI (A498 renal) [µM] | TGI (SW-620 colon) [µM] | TGI (IGROV1 ovarian) [µM] | TGI (UACC-62 melanoma) [µM] | TGI (NCI-H522 lung) [µM] | TGI (SNB-75 CNS) [µM] | TGI (T-47D breast) [µM] | TGI (SK-MEL-2 melanoma) [µM] | TGI (RXF 393 renal) [µM] | TGI (SF-539 CNS) [µM] | TGI (SF-268 CNS) [µM] | TGI (NCI-H226 lung) [µM] | TGI (HCC-2998 colon) [µM] | TGI (HOP-92 NSCLC) [µM] | TGI (UACC-257 melanoma) [µM] | TGI (BT-549 breast) [µM]
1 | OCC1COc2cc(Cl)c(Cl)cc2O1 (stereo unspecified) | > 10 | > 10 | > 10 | > 10 | > 10 | > 10 | > 10 | > 10 | > 10 | > 10 | > 10 | > 10 | > 10 | > 10 | > 10 | – | – | –
2 | COc1nc2cccc(C(O)c3ccccc3)c2nc1-c1ccccc1 (stereo unspecified) | – | 5.62 | 11.7 | 16.6 | 44.6 | 23.9 | 27.2 | > 100 | 61.6 | 33.3 | 14.6 | 8.23 | 33.4 | 13.3 | – | 31.8 | 26.9 | 46.3
3 | O=c1[nH]nc(NCc2ccccc2)c2nnn(Cc3ccccc3)c12 | – | – | – | – | – | – | – | – | – | > 100 | – | – | – | – | > 100 | > 100 | > 100 | > 100

Source: PubChem BioAssay (NCI)
